Read-outs that look alike come from different tables or passages of the source.
How the values were obtained:
Rho-kinase [1] = assay: inhibition of the binding of Rho-kinase to anti-Rho-kinase antibody-immobilized plate; parameters: species or system bovine
Protocol: Fifty μl of the dilution of the rabbit anti-goat IgG/Fc (Nippon Chemi-Con Corp.) in PBS(−) was pipetted into Immunoplate II (Nunc, 442404, High binding capacity) or a fluorescence/luminescence solid assay plate (COSTAR, 3922 white). After allowed to stand for 1.5 hours at room temperature, the solution was removed, and 200 μl of blocking solution in which Block Ace (DAINIPPON PHARMACEUTICAL) UK-B25 was diluted four times with PBS(−)) was added into the plate, followed by stirring the solution therein. The plate was allowed to stand for additional 1.5 hours at room temperature, washed three times with 200 μl of PBST (0.05% Tween20/PBS(−)), and added with a 0.1 μg/50 μl solution of anti-Rho-kinase antibody in PBS(−). After allowed to stand for additional 1.5 hours at room temperature, the plate was washed three times with 200 μl of PBST. Into the plate was placed 50 μl of 1.5 mg/ml bovine brain lysates, and the resultant plate was allowed to stand overnight at 4° C. This was washed twice with 200 μl of PBST, and once with 200 μl of PBS(−) to provide an immobilized plate.
Various concentrations of the antigen peptide used to prepare the anti-Rho-kinase antibody were supplemented to the bovine brain extract, and then Rho-kinase in the extract was immobilized onto the plate under the optimal conditions as found in Example 5. […]

Rho-kinase [2] = molecular target: T1, Rho-kinase (Bos taurus, UniProt Q28021); assay: antibody plate assay: Rho-kinase immobilized from bovine brain extract, phosphorylation of Histone HF2A; assay type: biochemical; conditions: Histone HF2A substrate, [33P]ATP, reaction time four hours
T1 construct: thus detecting the band of Rho-kinase at around 160 kDa; tissue Shiraimatsu; host or cells: bovine brain (cerebral gray matter) extract
Protocol: After allowed to stand for 1.5 hours at room temperature, the solution was removed, and 200 μl of blocking solution in which Block Ace (DAINIPPON PHARMACEUTICAL) UK-B25 was diluted four times with PBS(−)) was added into the plate, followed by stirring the solution therein. The plate was allowed to stand for additional 1.5 hours at room temperature, washed three times with 200 μl of PBST (0.05% Tween20/PBS(−)), and added with a 0.1 μg/50 μl solution of anti-Rho-kinase antibody in PBS(−).
(§1) ATP/30 μl. […] The reaction time was four hours.
(§2) SPA Multiscreen method was used for the estimation of the plate.
The inhibitory activity of these inhibitors was determined based on the radioactivity showing the phosphorylation that was detected in the antibody plate assay system, and compared to those previously reported, so that the plate was estimated in terms of the usefulness in a screening system for discovering inhibitors.

ROKa/ROK-II, active Cat = molecular target: T2, ROKa/ROK-II, active Cat (Rattus norvegicus, UniProt Q62868); assay: phosphorylation assay with ROKa/ROK-II, active Cat (Upstate) under a similar condition; assay type: biochemical
T2 construct: purchased Upstate
Protocol: as §1, §2

Rho-kinase [3] = conditions: read-out: Ki value; cited from earlier work

T1 sequence (Q28021 whole entry): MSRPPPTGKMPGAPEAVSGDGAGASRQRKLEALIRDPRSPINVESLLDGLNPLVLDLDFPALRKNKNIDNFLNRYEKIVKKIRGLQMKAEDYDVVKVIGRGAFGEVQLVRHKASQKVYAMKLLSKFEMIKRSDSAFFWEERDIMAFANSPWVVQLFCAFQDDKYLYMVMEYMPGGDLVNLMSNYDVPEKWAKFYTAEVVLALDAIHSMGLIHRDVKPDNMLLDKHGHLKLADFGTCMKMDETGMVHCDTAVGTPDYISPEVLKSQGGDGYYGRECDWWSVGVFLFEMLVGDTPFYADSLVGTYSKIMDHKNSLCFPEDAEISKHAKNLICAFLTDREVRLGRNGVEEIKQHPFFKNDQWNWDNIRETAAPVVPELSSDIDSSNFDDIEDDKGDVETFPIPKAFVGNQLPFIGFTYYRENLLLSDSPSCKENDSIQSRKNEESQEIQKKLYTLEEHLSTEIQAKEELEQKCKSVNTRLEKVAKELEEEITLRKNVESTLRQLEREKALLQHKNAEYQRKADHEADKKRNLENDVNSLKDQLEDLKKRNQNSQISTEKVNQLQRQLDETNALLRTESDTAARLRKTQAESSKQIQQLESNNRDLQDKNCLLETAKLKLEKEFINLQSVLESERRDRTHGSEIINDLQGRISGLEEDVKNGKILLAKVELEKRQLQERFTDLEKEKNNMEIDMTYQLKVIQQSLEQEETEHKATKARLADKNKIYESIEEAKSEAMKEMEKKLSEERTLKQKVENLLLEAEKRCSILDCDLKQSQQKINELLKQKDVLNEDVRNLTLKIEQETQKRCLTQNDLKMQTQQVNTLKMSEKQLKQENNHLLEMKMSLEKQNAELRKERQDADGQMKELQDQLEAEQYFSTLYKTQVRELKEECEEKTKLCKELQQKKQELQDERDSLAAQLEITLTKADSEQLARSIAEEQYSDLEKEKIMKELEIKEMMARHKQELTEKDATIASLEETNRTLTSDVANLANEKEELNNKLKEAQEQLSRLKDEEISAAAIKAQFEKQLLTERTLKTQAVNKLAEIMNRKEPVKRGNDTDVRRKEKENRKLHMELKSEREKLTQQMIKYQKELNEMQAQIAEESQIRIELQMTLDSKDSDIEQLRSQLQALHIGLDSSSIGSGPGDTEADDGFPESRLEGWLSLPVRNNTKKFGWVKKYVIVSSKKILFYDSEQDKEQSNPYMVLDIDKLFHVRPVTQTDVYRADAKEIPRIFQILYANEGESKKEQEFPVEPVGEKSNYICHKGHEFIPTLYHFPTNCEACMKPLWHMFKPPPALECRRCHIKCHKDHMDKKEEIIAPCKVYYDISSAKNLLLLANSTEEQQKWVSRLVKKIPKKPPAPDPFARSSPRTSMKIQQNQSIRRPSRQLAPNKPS
T2 sequence (Q62868 11-552 limits assumed): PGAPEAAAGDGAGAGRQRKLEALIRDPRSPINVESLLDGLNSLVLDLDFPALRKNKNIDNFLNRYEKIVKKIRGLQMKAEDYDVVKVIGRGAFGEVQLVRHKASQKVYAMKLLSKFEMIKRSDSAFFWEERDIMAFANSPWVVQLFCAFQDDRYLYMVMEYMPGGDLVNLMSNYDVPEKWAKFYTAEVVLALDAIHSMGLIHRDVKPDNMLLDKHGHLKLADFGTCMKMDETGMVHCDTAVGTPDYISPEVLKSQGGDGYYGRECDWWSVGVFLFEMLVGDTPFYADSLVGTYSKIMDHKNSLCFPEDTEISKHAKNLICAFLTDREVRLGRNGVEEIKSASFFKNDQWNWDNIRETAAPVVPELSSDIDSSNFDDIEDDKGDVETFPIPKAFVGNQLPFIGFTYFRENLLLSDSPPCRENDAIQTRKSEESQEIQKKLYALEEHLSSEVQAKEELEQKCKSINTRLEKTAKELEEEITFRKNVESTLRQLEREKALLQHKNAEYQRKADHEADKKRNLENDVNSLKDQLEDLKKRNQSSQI

In the case of “IQQNQSIRRPSRQLAPNKPS [antigen peptide, 20 amino acid C-terminal partial peptide of Rho-kinase used to prepare the anti-Rho-kinase antibody]”, the “inhibition of the immobilization of Rho-kinase” value (Rho-kinase [1]; 3.5 μM of the peptide) is reported as ~100% and the IC50 (Rho-kinase [1]; peptide supplemented to bovine brain extract, read-out: IC50 value, inhibition of immobilization of Rho-kinase) is reported as 350 nM.

For `C[C@@H](N)[C@H]1CC[C@H](C(=O)Nc2ccncc2)CC1` [Y-27632], the IC50 (Rho-kinase [2]; IC50 value, bovine brain) is given as 0.35 µM, the IC50 (ROKa/ROK-II, active Cat) is given as 0.79 µM and the Ki (Rho-kinase [3]) is given as 140 nM.

Molecule `COc1ccc2c(c[n+](C)c3c4cc5c(cc4ccc23)OCO5)c1OC` [chelerythrine] has an IC50 (Rho-kinase [2]; read-out: IC50 value, bovine brain) of 20 µM and an IC50 (ROKa/ROK-II, active Cat; similar assay condition, read-out: IC50 value, ROKa/ROK-II active Cat) of 11 µM.
